For test [1], the target named is Ba/F3 EGFR L858R/T790M/C797S (LTC) (Homo sapiens, UniProt P00533, T790M/C797S/L858R, cells depend on it). Nature of the test: Cell growth inhibitory ability in Ba/F3 cells overexpressing EGFR L858R/T790M/C797S (MTS, CellTiter 96 AQueous). It is filed as cell-based. Conditions: 72 hours, MTS absorbance at 490 nm, read-out: Ba/F3 EGFR triple mutant L858R/T790M/C797S, IC50. As for the experimental part: (§1) In order to confirm that the compound represented by formula 1 provided in one aspect of the present invention acts as an allosteric inhibitor against WT and mutant of EGFR, the cell growth inhibitory effect was evaluated in BaF3 cells overexpressing WT and mutant of EGFR.
(§2) More specifically, the cell growth inhibitory ability of the compound of the present invention to the Ba/F3 cell line overexpressing WT and mutant of EGFR was evaluated using CellTiter 96 AQueous Non-Radioactive Cell Proliferation Assay system of Promega, as follows. AQueous Non-Radioactive Cell Proliferation Assay is a method of confirming cell growth inhibitory ability by measuring the degree of color development by reducing MTS (3-(4,5-Dimethylthiazol-2-yl)-5-(3-carboxymethoxyphenyl)-2-(4-sulfophenyl)-2H-tetrazolium) to Formazan by a reductase secreted by mitochondria present in living cells in a cell culture state. The Ba/F3 EGFR WT and Ba/F3 EGFR del19/T790M/C797S (DTC), Ba/F3 EGFR L858R (L), Ba/F3 EGFR L858R/T790M (LT), and Ba/F3 EGFR L858R/T790M/C797S (LTC) mutation cell lines used in the present invention were purchased from the laboratory of Professor Byung-cheol Cho, Yonsei University. All cell lines were cultured in RPMI supplemented with 10% FBS, 1% penicillin-streptomycin and 1 μg/ml of puromycine in a 5% CO2 incubator at 37° C.
(§3) The cell survival inhibitory effect of the compound according to each EGFR mutation was analyzed by the following analysis method.
(§4) BaF3 cells were distributed in a 96-well cell culture plate at the density of 2000˜10000 cells/100 μL/well, and cultured for 24 hours. Thereafter, the concentration of the compound represented by formula 1 provided in one aspect of the present invention was prepared to double the final concentrations of 0.1 nM, 1 nM, 10 nM, 100 nM, 1000 nM and 10000 nM, and the compound was treated to the plate (100 μL/well). The plate was reacted in an incubator at 37° C. for 72 hours. Then, MTS was treated to the plate (20 μL/well) and the plate was incubated at 37° C. for 2 to 4 hours. Finally, after measuring the absorbance at 490 nm using a microplate reader, the relative value compared to 0 nM (% Control) was obtained to confirm the cell growth inhibitory ability of the compound. The measured values were analyzed using Prism program (version 8.0, Graphpad Software, Inc.), and the IC50 value (Inhibition concentration 50), an indicator of the cell growth inhibitory ability of the compound, was calculated.

The target of test [2] is Ba/F3 EGFR L858R/T790M (LT) (Homo sapiens, UniProt P00533, T790M/L858R, cells depend on it). Nature of the test: Cell growth inhibitory ability in Ba/F3 cells overexpressing EGFR L858R/T790M (MTS, CellTiter 96 AQueous). The format is cell-based. The note with it: 72 hours, MTS absorbance at 490 nm, read-out: Ba/F3 EGFR double mutant L858R/T790M, IC50. On the procedure:
as §1, §2, §3, §4

In the case of `Cc1cc(C(=O)N[C@@H](c2cc3ccccc3[nH]2)c2cc(F)ccc2O)cc(-c2cnc(N3CCC(N)CC3)nc2C)c1` [Example 34, (R)-3-(2-(4-aminopiperidine-1-yl)-4-methylpyrimidine-5-yl)-N-((5-fluoro-2-hydroxyphenyl)(1H-indole-2-yl)methyl)-5-methylbenzamide], the GI50 was 0.03 to 0.2 µM in test [1] and less than 0.03 µM in test [2].
As for `COc1cc(C(=O)N[C@@H](c2cc3ccccc3[nH]2)c2cc(F)ccc2O)cc(-c2ccc(N3CCC(N)CC3)cc2)c1` [Example 3, (R)-4′-(4-aminopiperidine-1-yl)-N-((5-fluoro-2-hydroxyphenyl)(1H-indole-2-yl)methyl)-5-methoxy-[1,1′-biphenyl]-3-carboxamide], the GI50 in test [1] and in test [2] was more than 0.2 µM each time.
Turning to `Cc1cc(C(=O)N[C@@H](c2cc3ccccc3[nH]2)c2cc(F)ccc2O)cc(-c2ccc(N3CCC(N)CC3)cc2C)c1` [Example 23, (R)-4′-(4-aminopiperidine-1-yl)-N-((5-fluoro-2-hydroxyphenyl)(1H-indole-2-yl)methyl)-2′,5-dimethyl-[1,1′-biphenyl]-3-carboxamide], the GI50 in test [1] and in test [2] was less than 0.03 µM in each case.
Regarding `NC1CCN(c2ccc(-c3cc(C(=O)N[C@@H](c4cc5ccccc5[nH]4)c4cc(F)ccc4O)ccn3)cc2)CC1` [Example 14, (R)-2-(4-(4-aminopiperidine-1-yl)phenyl)-N-((5-fluoro-2-hydroxyphenyl)(1H-indole-2-yl)methyl)isonicotinamide], the GI50 was more than 0.2 µM in test [1] and 0.03 to 0.2 µM in test [2].
Take `Cc1cc(C(=O)N[C@@H](c2cc3ccccc3[nH]2)c2cc(F)ccc2O)cc(-c2ncc(N3CCC(N)CC3)cn2)c1` [Example 21, (R)-3-(5-(4-aminopiperidine-1-yl)pyrimidine-2-yl)-N-((5-fluoro-2-hydroxyphenyl)(1H-indole-2-yl)methyl)-5-methylbenzamide]: the GI50 in test [1] and in test [2] was less than 0.03 µM in each case.
As for `CCCC1CCN(c2cnc(-c3cc(C)cc(C(=O)N[C@@H](c4cc5ccccc5[nH]4)c4cc(F)ccc4O)c3)nc2)CC1` [Example 38, N—[(R)-(5-fluoro-2-hydroxy-phenyl)-(1H-indole-2-yl)methyl]-3-methyl-5-[5-(4-propyl-1-piperidyl)pyrimidine-2-yl]benzamide], the GI50 in test [1] and in test [2] was more than 0.2 µM in each case.
Turning to `Cc1cc(C(=O)NC(c2cc3ccccc3[nH]2)c2cc(F)ccc2O)cc(-c2ccc(N3CCC(N)CC3)cc2)c1` (stereo not drawn) [Example 32, 4′-(4-aminopiperidine-1-yl)-N-((5-fluoro-2-hydroxyphenyl)(1H-indole-2-yl)methyl)-5-methyl-[1,1′-biphenyl]-3-carboxamide], the GI50 in test [1] and in test [2] was less than 0.03 µM each time.
“(R)-3-(6-((4-(dimethylamino)piperidine-1-yl)methyl)pyridine-3-yl)-N-((5-fluoro-2-hydroxyphenyl)(1H-indole-2-yl))methyl)-5-methylbenzamide [Example 43]”: the GI50 in test [1] was 0.03 to 0.2 µM; in test [2] it was less than 0.03 µM.
As to `Cc1cc(C(=O)N[C@@H](c2cc3ccccc3[nH]2)c2cc(F)ccc2O)cc(-c2ccc(N3CCC(N)CC3)c(C)c2)c1` [Example 25, (R)-4′-(4-aminopiperidine-1-yl)-N-((5-fluoro-2-hydroxyphenyl)(1H-indole-2-yl)methyl)-3′,5-dimethyl-[1,1′-biphenyl]-3-carboxamide], the GI50 in test [1] and in test [2] was less than 0.03 µM throughout.
As for `NC1CCN(c2ccc(-c3cc(Cl)cc(C(=O)N[C@@H](c4cc5ccccc5[nH]4)c4cc(F)ccc4O)c3)cc2)CC1` [Example 10, (R)-4′-(4-aminopiperidine-1-yl)-5-chloro-N-((5-fluoro-2-hydroxyphenyl)(1H-indole-2-yl)methyl)-[1,1′-biphenyl]-3-carboxamide], the GI50 is 0.03 to 0.2 µM in test [1] and less than 0.03 µM in test [2].
As to `Cc1cc(C(=O)N[C@@H](c2cc3ccccc3[nH]2)c2cc(F)ccc2O)cc(-c2ncc(N3CCN(C)CC3)cn2)c1` [Example 37, (R)—N-((5-fluoro-2-hydroxyphenyl)(1H-indole-2-yl)methyl)-3-methyl-5-(5-(4-methylpiperazine-1-yl)pyrimidine-2-yl)benzamide], the results for the GI50 in test [1] and in test [2] were less than 0.03 µM and 0.03 to 0.2 µM, respectively.
With `Cc1cc(C(=O)N[C@@H](c2cc3ccccc3[nH]2)c2cc(F)ccc2O)cc(-c2cc(C)c(N3CCC(N)CC3)cn2)c1` [Example 33, (R)-3-(5-(4-aminopiperidine-1-yl)-4-methylpyridine-2-yl)-N-((5-fluoro-2-hydroxyphenyl)(1H-indole-2-yl)methyl)-5-methylbenzamide], the GI50 in test [1] and in test [2] was less than 0.03 µM in each case.
Turning to `CC(C)(C)c1cc(C(=O)N[C@@H](c2cc3ccccc3[nH]2)c2cc(F)ccc2O)cc(-c2ccc(N3CCC(N)CC3)cc2)c1` [Example 4, (R)-4′-(4-aminopiperidine-1-yl)-5-(tert-butyl)-N-((5-fluoro-2-hydroxyphenyl)(1H-indole-2-yl)methyl)-[1,1′-biphenyl]-3-carboxamide], the GI50 in test [1] and in test [2] was more than 0.2 µM each time.
On to `NC1CCN(c2ccc(-c3cc(OC(F)(F)F)cc(C(=O)N[C@@H](c4cc5ccccc5[nH]4)c4cc(F)ccc4O)c3)cc2)CC1` [Example 11, (R)-4′-(4-aminopiperidine-1-yl)-N-((5-fluoro-2-hydroxyphenyl)(1H-indole-2-yl)methyl)-5-(trifluoromethoxy)-[1,1′-biphenyl]-3-carboxamide], for which the GI50 in test [1] and in test [2] was more than 0.2 µM throughout.
Regarding `Cc1cc(C(=O)N[C@@H](c2cc3ccccc3[nH]2)c2cc(F)ccc2O)cc(-c2cnc(N3CCC(N)CC3)nc2)c1` [Example 16, (R)-3-(2-(4-aminopiperidine-1-yl)pyrimidine-5-yl)-N-((5-fluoro-2-hydroxyphenyl)(1H-indole-2-yl)methyl)-5-methylbenzamide], the GI50 in test [1] was 0.03 to 0.2 µM; in test [2], less than 0.03 µM.
For `CC(C)c1cc(C(=O)N[C@@H](c2cc3ccccc3[nH]2)c2cc(F)ccc2O)cc(-c2ccc(N3CCC(N)CC3)cc2)c1` [Example 2, (R)-4′-(4-aminopiperidine-1-yl)-N-((5-fluoro-2-hydroxyphenyl)(1H-indole-2-yl)methyl)-5-isopropyl-[1,1′-biphenyl]-3-carboxamide], the GI50 in test [1] and in test [2] was more than 0.2 µM each time.
In the case of `Cc1cc(C(=O)N[C@@H](c2cc3ccccc3[nH]2)c2cc(F)ccc2O)cc(-c2ccc(N3CCC(N)CC3)nc2)c1` [Example 19, (R)-3-(6-(4-aminopiperidine-1-yl)pyridine-3-yl)-N-((5-fluoro-2-hydroxyphenyl)(1H-indole-2-yl)methyl)-5-methylbenzamide], the GI50 in test [1] and in test [2] was less than 0.03 µM in each case.
As to `N#Cc1cc(C(=O)N[C@@H](c2cc3ccccc3[nH]2)c2cc(F)ccc2O)cc(-c2ccc(N3CCC(N)CC3)cc2)c1` [Example 9, 4′-(4-aminopiperidine-1-yl)-5-cyano-N-((5-fluoro-2-hydroxyphenyl)(1H-indole-2-yl)methyl)-[1,1′-biphenyl]-3-carboxamide], the GI50 in test [1] and in test [2] was more than 0.2 µM throughout.

For the origin of these results see US20240246948A1, “BENZAMIDE DERIVATIVE, METHOD FOR PREPARING SAME, AND PHARMACEUTICAL COMPOSITION FOR PREVENTION OR TREATMENT OF CANCER CONTAINING SAME AS ACTIVE INGREDIENT” (HK INNO.N CORPORATION, priority 2021, published 2024).
